{
  "source": "patent US6355799B1",
  "about": "“Substituted benzene compounds, process for their preparation, and herbicidal and defoliant compositions containing them” (ISK Americas Incorporated, priority 1997, dated 2002)",
  "assay_type_in_all_cases": "in vivo",
  "key": {"[1]": {"tested_on": "redroot pigweed (Amaranthus retroflexus, AMARE)", "test": "Pre-emerge test, greenhouse herbicide activity screening", "details": "pre-emerge, rated 14 days after application, 0 = no damage, 100 = complete death", "outline": "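Sandy loam pots; pre-emerge: sown 1 d pre-spray, surface-watered after, then bottom-watered. Post-emerge: sown 8–21 d before, 2–3 leaf stage, + 0.25% v/v NIS, bottom-watered. Acetone, 187 l/ha track spray, 15–1000 g ai/ha. 0–100 injury score, day 14.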"}, "[2]": {"tested_on": "barnyardgrass (Echinochloa crus-galli, ECHCG)", "test": "Pre-emerge test, greenhouse herbicide activity screening", "details": "pre-emerge, rated 14 days after application, 0 = no damage, 100 = complete death", "outline": "(§1)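 Visual ratings on a 0-100 scale (0 no damage, 100 all plants dead) were taken at 14 days after treatment. Rates of 15-1000 g ai/ha in acetone, 187 l/ha, were sprayed onto soil one day after planting (pre-emerge) or onto 2-3 leaf plants with 0.25% v/v surfactant (post-emerge).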"}, "[3]": {"tested_on": "velvetleaf (Abutilon theophrasti, ABUTH)", "test": "Pre-emerge test, greenhouse herbicide activity screening", "details": "pre-emerge, rated 14 days after application, 0 = no damage, 100 = complete death", "outline": "as §1"}, "[4]": {"tested_on": "ivyleaf morningglory (Ipomoea hederacea, IPOHE)", "test": "Pre-emerge test, greenhouse herbicide activity screening", "details": "pre-emerge, rated 14 days after application, 0 = no damage, 100 = complete death", "outline": "as §1"}, "[5]": {"tested_on": "johnsongrass (Sorghum halepense, SORHA)", "test": "Pre-emerge test, greenhouse herbicide activity screening", "details": "pre-emerge, rated 14 days after application, 0 = no damage, 100 = complete death", "outline": "as §1"}, "[6]": {"tested_on": "large crabgrass (Digitaria sanguinalis, DIGSA)", "test": "Pre-emerge test, greenhouse herbicide activity screening", "details": "pre-emerge, rated 14 days after application, 0 = no damage, 100 = complete death", "outline": "as §1"}, "[7]": {"tested_on": "sicklepod (Cassia obtusifolia, CASOB)", "test": "Pre-emerge test, greenhouse herbicide activity screening", "details": "pre-emerge, rated 14 days after application, 0 = no damage, 100 = complete death", "outline": "as §1"}, "[8]": {"tested_on": "lambsquarters (Chenopodium album, CHEAL)", "test": "Pre-emerge test, greenhouse herbicide activity screening", "details": "pre-emerge, rated 14 days after application, 0 = no damage, 100 = complete death", "outline": "as §1"}, "[9]": {"tested_on": "green foxtail (Setaria viridis, SETVI)", "test": "Pre-emerge test, greenhouse herbicide activity screening", "details": "pre-emerge, rated 14 days after application, 0 = no damage, 100 = complete death", "outline": "as §1"}, "[10]": {"tested_on": "barnyardgrass (Echinochloa crus-galli, ECHCG)", "test": "Post-emerge test, greenhouse herbicide activity screening", "details": "phytotoxicity rating 0-100 (0 no damage, 100 complete death), 14 days after application", "outline": "(§2)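 Compounds in acetone were track-sprayed at 15-1000 g ai/ha (187 l/ha) on sandy loam pots: pre-emerge one day after seeding, post-emerge at 2-3 leaf stage with 0.25% v/v non-ionic surfactant. Phytotoxicity was rated 14 days later on a 0 (no damage) to 100 (complete death) scale.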"}, "[11]": {"tested_on": "velvetleaf (Abutilon theophrasti, ABUTH)", "test": "Post-emerge test, greenhouse herbicide activity screening", "details": "phytotoxicity rating 0-100 (0 no damage, 100 complete death), 14 days after application", "outline": "as §2"}, "[12]": {"tested_on": "redroot pigweed (Amaranthus retroflexus, AMARE)", "test": "Post-emerge test, greenhouse herbicide activity screening", "details": "phytotoxicity rating 0-100 (0 no damage, 100 complete death), 14 days after application", "outline": "as §2"}, "[13]": {"tested_on": "ivyleaf morningglory (Ipomoea hederacea, IPOHE)", "test": "Post-emerge test, greenhouse herbicide activity screening", "details": "phytotoxicity rating 0-100 (0 no damage, 100 complete death), 14 days after application", "outline": "as §2"}, "[14]": {"tested_on": "johnsongrass (Sorghum halepense, SORHA)", "test": "Post-emerge test, greenhouse herbicide activity screening", "details": "phytotoxicity rating 0-100 (0 no damage, 100 complete death), 14 days after application", "outline": "as §2"}, "[15]": {"tested_on": "large crabgrass (Digitaria sanguinalis, DIGSA)", "test": "Post-emerge test, greenhouse herbicide activity screening", "details": "phytotoxicity rating 0-100 (0 no damage, 100 complete death), 14 days after application", "outline": "as §2"}, "[16]": {"tested_on": "sicklepod (Cassia obtusifolia, CASOB)", "test": "Post-emerge test, greenhouse herbicide activity screening", "details": "phytotoxicity rating 0-100 (0 no damage, 100 complete death), 14 days after application", "outline": "as §2"}, "[17]": {"tested_on": "lambsquarters (Chenopodium album, CHEAL)", "test": "Post-emerge test, greenhouse herbicide activity screening", "details": "phytotoxicity rating 0-100 (0 no damage, 100 complete death), 14 days after application", "outline": "as §2"}, "[18]": {"tested_on": "green foxtail (Setaria viridis, SETVI)", "test": "Post-emerge test, greenhouse herbicide activity screening", "details": "phytotoxicity rating 0-100 (0 no damage, 100 complete death), 14 days after application", "outline": "as §2"}, "[19]": {"tested_on": "upland rice (Oryza sp., var. Tebonnet, RICE)", "test": "Post-emerge test, crop safety", "details": "phytotoxicity rating 0-100 (0 no damage, 100 complete death), 14 days after application", "outline": "as §1"}, "[20]": {"tested_on": "field corn (Zea mays L., var. Dekalb 535, CORN)", "test": "Post-emerge test, crop safety", "details": "phytotoxicity rating 0-100 (0 no damage, 100 complete death), 14 days after application", "outline": "as §1"}, "[21]": {"tested_on": "upland rice (Oryza sp., var. Tebonnet, RICE)", "test": "Pre-emerge test, crop safety", "details": "pre-emerge, rated 14 days after application, 0 = no damage, 100 = complete death", "outline": "(§3)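 Applied at 15–1000 g ai/ha from acetone in 187 l/ha spray volume. Post-emergence applications included 0.25% v/v non-ionic surfactant and reached plants sown 8–21 days before. Pre-emergence applications were incorporated by surface watering. Efficacy or crop damage was rated on a 0–100 scale after 14 days.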"}, "[22]": {"tested_on": "field corn (Zea mays L., var. Dekalb 535, CORN)", "test": "Pre-emerge test, crop safety", "details": "pre-emerge, rated 14 days after application, 0 = no damage, 100 = complete death", "outline": "as §3"}},
  "data": [
    {"smiles": "CCOC(=O)COc1c(Cl)cc(F)c(-n2c(=O)cc(C(F)(F)F)n(C)c2=O)c1N", "note": "[Compound 1-59]", "values": [
      {"measurement": "Pre-emerge Herbicidal Activity AMARE (phytotoxicity rating, scale 0-100)", "setting": "[1]; 63 g ai/ha", "result": 100},
      {"measurement": "Pre-emerge Herbicidal Activity AMARE (phytotoxicity rating, scale 0-100)", "setting": "[1]; 250 g ai/ha", "result": 100},
      {"measurement": "Pre-emerge Herbicidal Activity ECHCG (phytotoxicity rating, scale 0-100)", "setting": "[2]; 63 g ai/ha", "result": 0},
      {"measurement": "Pre-emerge Herbicidal Activity ECHCG (phytotoxicity rating, scale 0-100)", "setting": "[2]; 250 g ai/ha", "result": 70},
      {"measurement": "Pre-emerge Herbicidal Activity ABUTH (phytotoxicity rating, scale 0-100)", "setting": "[3]; 63 g ai/ha", "result": 100},
      {"measurement": "Pre-emerge Herbicidal Activity ABUTH (phytotoxicity rating, scale 0-100)", "setting": "[3]; 250 g ai/ha", "result": 100},
      {"measurement": "Pre-emerge Herbicidal Activity IPOHE (phytotoxicity rating, scale 0-100)", "setting": "[4]; 63 g ai/ha", "result": 100},
      {"measurement": "Pre-emerge Herbicidal Activity IPOHE (phytotoxicity rating, scale 0-100)", "setting": "[4]; 250 g ai/ha", "result": 100},
      {"measurement": "Pre-emerge Herbicidal Activity SORHA (phytotoxicity rating, scale 0-100)", "setting": "[5]; 63 g ai/ha", "result": 30},
      {"measurement": "Pre-emerge Herbicidal Activity SORHA (phytotoxicity rating, scale 0-100)", "setting": "[5]; 250 g ai/ha", "result": 85},
      {"measurement": "Pre-emerge Herbicidal Activity DIGSA (phytotoxicity rating, scale 0-100)", "setting": "[6]; 63 g ai/ha", "result": 30},
      {"measurement": "Pre-emerge Herbicidal Activity DIGSA (phytotoxicity rating, scale 0-100)", "setting": "[6]; 250 g ai/ha", "result": 90},
      {"measurement": "Pre-emerge Herbicidal Activity CASOB (phytotoxicity rating, scale 0-100)", "setting": "[7]; 63 g ai/ha", "result": 30},
      {"measurement": "Pre-emerge Herbicidal Activity CASOB (phytotoxicity rating, scale 0-100)", "setting": "[7]; 250 g ai/ha", "result": 80},
      {"measurement": "Pre-emerge Herbicidal Activity CHEAL (phytotoxicity rating, scale 0-100)", "setting": "[8]; 63 g ai/ha", "result": 100},
      {"measurement": "Pre-emerge Herbicidal Activity CHEAL (phytotoxicity rating, scale 0-100)", "setting": "[8]; 250 g ai/ha", "result": 100},
      {"measurement": "Pre-emerge Herbicidal Activity SETVI (phytotoxicity rating, scale 0-100)", "setting": "[9]; 63 g ai/ha", "result": 30},
      {"measurement": "Pre-emerge Herbicidal Activity SETVI (phytotoxicity rating, scale 0-100)", "setting": "[9]; 250 g ai/ha", "result": 90},
      {"measurement": "Post-emerge Herbicidal Activity ECHCG", "setting": "[10]; 63 g ai/ha", "result": 30},
      {"measurement": "Post-emerge Herbicidal Activity ECHCG", "setting": "[10]; 250 g ai/ha", "result": 80},
      {"measurement": "Post-emerge Herbicidal Activity ABUTH", "setting": "[11]; 63 g ai/ha", "result": 100},
      {"measurement": "Post-emerge Herbicidal Activity ABUTH", "setting": "[11]; 250 g ai/ha", "result": 100},
      {"measurement": "Post-emerge Herbicidal Activity AMARE", "setting": "[12]; 63 g ai/ha", "result": 95},
      {"measurement": "Post-emerge Herbicidal Activity AMARE", "setting": "[12]; 250 g ai/ha", "result": 100},
      {"measurement": "Post-emerge Herbicidal Activity IPOHE", "setting": "[13]; 63 g ai/ha", "result": 100},
      {"measurement": "Post-emerge Herbicidal Activity IPOHE", "setting": "[13]; 250 g ai/ha", "result": 100},
      {"measurement": "Post-emerge Herbicidal Activity SORHA", "setting": "[14]; 63 g ai/ha", "result": 10},
      {"measurement": "Post-emerge Herbicidal Activity SORHA", "setting": "[14]; 250 g ai/ha", "result": 50},
      {"measurement": "Post-emerge Herbicidal Activity DIGSA", "setting": "[15]; 63 g ai/ha", "result": 0},
      {"measurement": "Post-emerge Herbicidal Activity DIGSA", "setting": "[15]; 250 g ai/ha", "result": 40},
      {"measurement": "Post-emerge Herbicidal Activity CASOB", "setting": "[16]; 63 g ai/ha", "result": 40},
      {"measurement": "Post-emerge Herbicidal Activity CASOB", "setting": "[16]; 250 g ai/ha", "result": 100},
      {"measurement": "Post-emerge Herbicidal Activity CHEAL", "setting": "[17]; 63 g ai/ha", "result": 100},
      {"measurement": "Post-emerge Herbicidal Activity CHEAL", "setting": "[17]; 250 g ai/ha", "result": 100},
      {"measurement": "Post-emerge Herbicidal Activity SETVI", "setting": "[18]; 63 g ai/ha", "result": 10},
      {"measurement": "Post-emerge Herbicidal Activity SETVI", "setting": "[18]; 250 g ai/ha", "result": 70},
      {"measurement": "Post-emerge Herbicidal Activity RICE (crop damage)", "setting": "[19]; 63 g ai/ha", "result": 30},
      {"measurement": "Post-emerge Herbicidal Activity RICE (crop damage)", "setting": "[19]; 250 g ai/ha", "result": 60},
      {"measurement": "Post-emerge Herbicidal Activity CORN (crop damage)", "setting": "[20]; 63 g ai/ha", "result": 45},
      {"measurement": "Post-emerge Herbicidal Activity CORN (crop damage)", "setting": "[20]; 250 g ai/ha", "result": 80},
      {"measurement": "Pre-emerge crop damage RICE (phytotoxicity rating, scale 0-100)", "setting": "[21]; 63 g ai/ha", "result": 30},
      {"measurement": "Pre-emerge crop damage RICE (phytotoxicity rating, scale 0-100)", "setting": "[21]; 250 g ai/ha", "result": 70},
      {"measurement": "Pre-emerge crop damage CORN (phytotoxicity rating, scale 0-100)", "setting": "[22]; 63 g ai/ha", "result": 30},
      {"measurement": "Pre-emerge crop damage CORN (phytotoxicity rating, scale 0-100)", "setting": "[22]; 250 g ai/ha", "result": 90}
    ]}
  ]
}
